According to US20080201790A1, “Method and product for regulating cell responsiveness to external signals” (priority 1993, published 2008):

Columns and labels:
L929 cells = test: Neutral red cell viability assay of L929 cells treated with TNFα and/or bFGF; format: cell-based, murine
Protocol: In panel A cells were treated with the indicated concentrations of TNFα for 15 hours and were assayed for uptake of neutral red. In panel B cells were untreated (solid bars), treated with 0.5 ng/ml bFGF (dotted bars) or 5.0 ng/ml bFGF (hatched bars) and the indicated concentrations of TNFα for 18 hours. Cell viability was assessed by neutral red assay.
In panel A serum starved L929 cells were untreated or treated for 1 hour at 37° C. with the MEK-1 inhibitor (PD) and then unstimulated or stimulated with bFGF. MAPK activity was measured. In panel B L929 cells were untreated or treated for 1 hour at 37° C. with PD and then were untreated or treated with TNFα alone or in combination with bFGF for 18 hours. Cell viability was assessed by neutral red assay.
Cell lines and culture. L929 cells (ATCC CCL1 were maintained in Dulbecco's modified Eagle's medium with 5% newborn calf serum and 5% bovine calf serum (BCS) supplemented with 100 ug/ml streptomycin and 100 U/ml penicillin. The cells were grown in 10 cm dishes at 37° C. in 7.5% CO2. Cells were made quiescent where indicated by incubation in Dulbecco's modified Eagle's medium and 0.1% bovine serum albumin for 24 h. Recombinant murine TNFα and recombinant human bFGF (147aa) were from R&D Systems, Minneapolis, Minn. Cells were pretreated where indicated with the MEK-1 inhibitor PD#098059 (Parke-Davis Pharmaceutical Corp. Ann Arbor, Mich.) for 1 h at 37° C. Cells were stimulated by incubation with the indicated cytokine or growth factor for various times at 37° C. Stimulation was stopped by rinsing the plates twice with ice cold phosphate buffered saline (PBS) and lysing the cells in the appropriate lysis buffer. Cells were scraped from the plates and nuclei were pelleted for 10 min at 14,000 RPM in a microcentrifuge. JNK assay. JNK activity was measured using a solid state kinase assay in which glutathione S-transferase-c-Jun (1-79) (GST-JUN) cound to glutathione-Sepharose 4B beads was used to affinity purify JNK and then JNK activity was measured in an in vitro kinase assay using the sepharose bound GST-Jun as a substrate (Hibi, M., et al. (1993) Genes & Development 7:2135-2148). Stimulated or unstimulated cells were lysed in 0.5% Nonidet P-40, 20 mM HEPES pH 7.2, 100 mM NaCl, 2 mM dithiothreitol, 1 mM EDTA, 1.0 mM phenylmethylsulfonylfluoride, 1 μg/ml aprotinin and the nuclei pelleted. Lysates were normalized for protein content. JNK was affinity purified from 50-100 μg of cell lysate by the addition of 10 ul of GST-Jun sepharose slurry (2 μg GST-Jun). Binding to GST-Jun efficiently isolates the two major forms of JNK (p45 and p55) and under the conditions used JNK isolation was linear for 10-250 μg of cell lysate. The lysates were rotated at 4° C. for 1-3 h. Beads were washed twice in lysis buffer and then twice in PAN (10 mM PIPES, pH 7.0, 100 mM NaCl, 21 μg/ml aprotinin). Kinase reactions were carried out at 30° C. for 15 min in 20 mM Hepes pH 7.2, 20 mM β-glycerophosphate, 10 mM p-nitrophenyl phosphate, 10 mM MgCl2, 1 mM dithiothreitol, 50 μm sodium vanadate, 10 μCi γ^32P-ATP 4300 Ci/mmole. The kinase reaction was linear from 0-30 min. MAPK Assay MAPK activity was measured exactly as described previously (Gardner, A. M., et al. (1994) Meth. Enzymol. 238:258-270) with the exception that MonoQ FPLC fractionation was replaced by step elution from a DEAE-Sephacel column using 0.5 M NaCl in loading buffer. The eluate was assayed in triplicate using the epidermal growth factor receptor 662-681 peptide (EGFR662-681) as a selective substrate for MAPK activity (Heasley, L. E., et al. (1994) American Journal of Physiology (Renal Fluid Electrolyte Physiol. 36) 267:F366-F373). […]

C-Raf = test: Raf activation assay in L929 cells, C-Raf; format: cell-based, murine

Substance	time required to induce a similar level of L929 cell death (L929 cells; 1 ng/ml TNFα)	L929 cells being apoptotic (L929 cells; 10 ng/ml TNFα, 15 hr)	activation of C-Raf (phosphorylation of kinase-inactive MEK-1) (C-Raf)	effect on TNFα-mediated cell death (L929 cells; L929 cells)	cell number in the absence of TNFα (L929 cells; bFGF alone)
TNFα	24 to 48 h	greater than 40%	does not significantly activate either isoform of Raf	–	–
bFGF: recombinant human bFGF (147aa), basic fibroblast growth factor	–	–	activation of both B-Raf and C-Raf	effective at blocking	did not measurably increase cell number
